# Measurements as given in ChEMBL document CHEMBL5346943, “Discovery and Structural Optimization of Novel Quinolone Derivatives as Potent Irreversible Pan-Fibroblast Growth Factor Receptor Inhibitors for Treating Solid Tumors” (J Med Chem, 2023).
# Legend:
# Huh-7 = assay: Antiproliferative activity against human Huh-7 cells incubated for 72 hrs by Cell counting kit 8 method; assay type: functional, cell-based; settings: Huh-7, 72 h
# [1] = target: T1, Fibroblast growth factor receptor 4 (Homo sapiens, UniProt P22455); assay: Inhibition of FGFR4 (unknown origin) incubated for 10 mins followed by substrate addition measured after 60 mins by ADP-Glo luminescence assay
# Target sequence in this assay (P22455 whole entry): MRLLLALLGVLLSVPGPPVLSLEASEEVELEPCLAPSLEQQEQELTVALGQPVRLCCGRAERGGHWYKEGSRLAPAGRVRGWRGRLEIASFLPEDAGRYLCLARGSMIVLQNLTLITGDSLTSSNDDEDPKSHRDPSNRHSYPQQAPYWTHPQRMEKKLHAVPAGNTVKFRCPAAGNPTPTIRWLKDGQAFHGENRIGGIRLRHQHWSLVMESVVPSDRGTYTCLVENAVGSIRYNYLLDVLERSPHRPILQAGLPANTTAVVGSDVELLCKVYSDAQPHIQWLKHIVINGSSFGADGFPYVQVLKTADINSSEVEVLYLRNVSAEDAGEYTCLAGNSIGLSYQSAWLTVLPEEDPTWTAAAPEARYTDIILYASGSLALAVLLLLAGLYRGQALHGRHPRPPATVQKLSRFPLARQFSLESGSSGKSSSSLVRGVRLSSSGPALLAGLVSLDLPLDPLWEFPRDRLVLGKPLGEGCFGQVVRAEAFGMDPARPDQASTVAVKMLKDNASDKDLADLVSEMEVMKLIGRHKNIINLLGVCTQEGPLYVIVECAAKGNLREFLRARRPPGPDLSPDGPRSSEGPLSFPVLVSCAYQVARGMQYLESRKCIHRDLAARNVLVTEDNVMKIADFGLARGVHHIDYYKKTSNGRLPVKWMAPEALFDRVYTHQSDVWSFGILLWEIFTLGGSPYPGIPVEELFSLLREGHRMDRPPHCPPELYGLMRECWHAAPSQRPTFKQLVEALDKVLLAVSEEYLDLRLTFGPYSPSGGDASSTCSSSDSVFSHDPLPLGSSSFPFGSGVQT
# Hep 3B2 = assay: Antiproliferative activity against human Hep3B cells incubated for 72 hrs by Cell counting kit 8 method; assay type: functional, cell-based
# [2] = target: T1, Fibroblast growth factor receptor 4; assay: Inhibition of FGFR4 (unknown origin) at 100 nM incubated for 10 mins followed by substrate addition measured after 60 mins by ADP-Glo luminescence assay relative to control; settings: time 70.0 min
# Target sequence in this assay (P22455 22-802 limits assumed): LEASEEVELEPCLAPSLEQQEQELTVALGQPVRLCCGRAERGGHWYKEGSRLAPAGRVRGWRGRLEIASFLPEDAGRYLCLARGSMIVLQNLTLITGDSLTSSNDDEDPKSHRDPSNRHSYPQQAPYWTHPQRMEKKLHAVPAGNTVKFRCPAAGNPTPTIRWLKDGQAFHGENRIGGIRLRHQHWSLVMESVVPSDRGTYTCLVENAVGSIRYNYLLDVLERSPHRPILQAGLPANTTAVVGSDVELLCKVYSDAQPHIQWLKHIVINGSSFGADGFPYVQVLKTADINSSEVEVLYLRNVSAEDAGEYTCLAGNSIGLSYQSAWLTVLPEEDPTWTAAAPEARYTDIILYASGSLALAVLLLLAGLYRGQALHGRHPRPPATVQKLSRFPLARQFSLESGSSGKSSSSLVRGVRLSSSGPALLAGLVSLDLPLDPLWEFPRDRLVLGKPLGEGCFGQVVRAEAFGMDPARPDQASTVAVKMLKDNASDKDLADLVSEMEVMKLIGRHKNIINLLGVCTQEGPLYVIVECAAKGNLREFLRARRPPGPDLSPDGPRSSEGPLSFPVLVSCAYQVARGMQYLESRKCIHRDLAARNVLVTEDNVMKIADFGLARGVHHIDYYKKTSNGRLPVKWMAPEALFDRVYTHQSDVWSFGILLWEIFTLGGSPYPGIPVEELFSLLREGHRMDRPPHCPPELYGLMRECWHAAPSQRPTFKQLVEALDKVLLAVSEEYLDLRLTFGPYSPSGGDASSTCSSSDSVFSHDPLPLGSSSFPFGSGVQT
# [3] = Ionization constant, pKa of the compound in PBS buffer at pH 1.42 to 12.33 by electrochemical method; assay type: physicochemical
# [4] = Microsomal stability in human liver microsomes assessed as half life preincubated for 10 mins followed by NADPH addition measured upto 60 mins by LC-MS/MS analysis; assay type: ADME, Microsome; settings: time < 70 min
# [5] = Microsomal stability in human liver microsomes assessed as intrinsic clearance preincubated for 10 mins followed by NADPH addition measured upto 60 mins by LC-MS/MS analysis; assay type: ADME, Microsome; settings: time < 70 min, read-out: CLH
# [6] = Permeability of the compound at 10 uM preincubated in acceptor compartment for 16 hrs followed by 16 hrs incubation in donor compartment by PAMPA based LC-MS/MS analysis; assay type: ADME; settings: time 32 hrs, read-out: permeability
# [7] = target: Fibroblast growth factor receptor 2 (Homo sapiens, UniProt P21802); assay: Inhibition of FGFR2 (unknown origin) incubated for 10 mins followed by substrate addition measured after 60 mins by ADP-Glo luminescence assay
# Sequence of Fibroblast growth factor receptor 2 (P21802 whole entry): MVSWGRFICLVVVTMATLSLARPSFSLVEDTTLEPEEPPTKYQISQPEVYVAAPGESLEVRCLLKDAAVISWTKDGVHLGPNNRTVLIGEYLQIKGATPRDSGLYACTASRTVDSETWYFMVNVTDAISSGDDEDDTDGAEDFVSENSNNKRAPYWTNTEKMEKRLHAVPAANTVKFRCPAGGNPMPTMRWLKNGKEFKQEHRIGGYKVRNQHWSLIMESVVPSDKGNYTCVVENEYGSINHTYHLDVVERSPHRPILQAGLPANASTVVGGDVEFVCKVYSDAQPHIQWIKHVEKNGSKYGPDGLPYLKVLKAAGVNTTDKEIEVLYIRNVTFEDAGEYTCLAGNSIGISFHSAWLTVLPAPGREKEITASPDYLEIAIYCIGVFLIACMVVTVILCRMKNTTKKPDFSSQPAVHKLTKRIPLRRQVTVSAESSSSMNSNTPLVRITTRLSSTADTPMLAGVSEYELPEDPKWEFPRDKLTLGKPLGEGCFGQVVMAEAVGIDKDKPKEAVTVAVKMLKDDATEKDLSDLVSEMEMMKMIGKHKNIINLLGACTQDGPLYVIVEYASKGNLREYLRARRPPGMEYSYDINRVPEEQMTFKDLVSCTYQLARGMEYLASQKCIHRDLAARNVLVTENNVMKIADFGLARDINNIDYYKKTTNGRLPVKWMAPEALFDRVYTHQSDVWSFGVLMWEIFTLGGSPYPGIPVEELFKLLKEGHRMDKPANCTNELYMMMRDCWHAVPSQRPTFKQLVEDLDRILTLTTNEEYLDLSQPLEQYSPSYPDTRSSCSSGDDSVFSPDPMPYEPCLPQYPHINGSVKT
# [8] = target: Fibroblast growth factor receptor 1 (Homo sapiens, UniProt P11362); assay: Inhibition of FGFR1 (unknown origin) incubated for 10 mins followed by substrate addition measured after 60 mins by ADP-Glo luminescence assay
# Sequence of Fibroblast growth factor receptor 1 (P11362 whole entry): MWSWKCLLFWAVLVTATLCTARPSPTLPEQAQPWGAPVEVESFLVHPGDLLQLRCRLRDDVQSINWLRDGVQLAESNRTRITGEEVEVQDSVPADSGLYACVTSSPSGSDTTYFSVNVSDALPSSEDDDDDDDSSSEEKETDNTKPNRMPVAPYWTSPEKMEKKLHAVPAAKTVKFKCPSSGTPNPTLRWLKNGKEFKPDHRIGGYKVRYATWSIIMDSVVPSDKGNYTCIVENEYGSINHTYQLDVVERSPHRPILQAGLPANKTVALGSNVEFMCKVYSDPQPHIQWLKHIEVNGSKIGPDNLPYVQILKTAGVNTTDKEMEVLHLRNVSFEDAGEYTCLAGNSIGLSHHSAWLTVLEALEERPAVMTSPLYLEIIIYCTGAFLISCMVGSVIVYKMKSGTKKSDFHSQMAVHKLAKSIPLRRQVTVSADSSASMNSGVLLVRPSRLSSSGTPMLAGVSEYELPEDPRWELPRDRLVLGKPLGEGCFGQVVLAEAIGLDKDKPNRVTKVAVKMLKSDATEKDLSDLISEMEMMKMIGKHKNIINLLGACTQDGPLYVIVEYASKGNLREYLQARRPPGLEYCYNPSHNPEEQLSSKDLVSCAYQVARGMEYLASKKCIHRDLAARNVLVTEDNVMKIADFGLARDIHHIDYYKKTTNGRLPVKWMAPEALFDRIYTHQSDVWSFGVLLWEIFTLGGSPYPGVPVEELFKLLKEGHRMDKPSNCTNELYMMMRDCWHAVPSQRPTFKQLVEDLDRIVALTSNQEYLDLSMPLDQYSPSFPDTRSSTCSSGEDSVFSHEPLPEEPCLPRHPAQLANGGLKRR
SMILES,IC50 (Huh-7) [nM],IC50 [1] [nM],IC50 (Hep 3B2) [nM],inhibition [2] [%],other results
C=CC(=O)N1CCC(c2cc3c(Oc4ccc(NC(=O)NC5CC5)c(Cl)c4)ncnc3cc2OC)CC1,71.3,15,72.6,,
COc1cc2nccc(Oc3ccc(NC(=O)NC4CC4)c(Cl)c3)c2cc1C1CCN(C(=O)/C=C/C(F)(F)F)CC1,103,12.4,> 10000,,
C=CC(=O)N1CCC(c2cc3c(Oc4ccc(NC(=O)NC5CC5)c(Cl)c4)c(C#N)cnc3cc2OC)CC1,8830,,> 10000,15,
C=CC(=O)N1CCC(c2cc3c(Oc4ccc(NC(=O)C5(C(=O)Nc6ccc(F)cc6)CC5)cc4)ccnc3cc2OC)CC1,> 10000,,3930,-2.1,
C=CC(=O)N1CCC(c2cc3c(Oc4ccc(NC(=O)c5c(C)n(C)n(-c6ccccc6)c5=O)cc4F)ccnc3cc2OC)CC1,1710,,450,,
C=CC(=O)N1CCC(c2cc3c(Nc4ccc(F)c(Cl)c4)ccnc3cc2OC)CC1,> 10000,,> 10000,15.3,
C=CC(=O)N1CCC(c2cc3c(Oc4ccc5c(C(=O)NC)c(C)oc5c4)ccnc3cc2OC)CC1,32.9,,41,40.7,
C=CC(=O)N1CCC(c2cc3c(Oc4ccc(NC(=O)NC5CC5)c(Cl)c4)ccnc3cc2OC)C(C)C1 (stereo unspecified),16.9,5.73,13.3,,
C=CC(=O)N1CCC(c2cc3c(Oc4ccc(NC(=O)NC5CC5)c(F)c4)ccnc3cc2OC)CC1,21.1,18,30.2,,
COc1cc2nccc(Oc3ccc(NC(=O)NC4CC4)c(Cl)c3)c2cc1C(N)=O [LENVATINIB],851,,696,,"pKa [3]: 5.27; half-life [4]: 22.4 min; microsomal CLint [5]: 74.1 µL/min/mg; Papp at 16 h, 10 µM [6]: 9.27 ×10⁻⁶ cm/s; IC50 [7]: 11 nM; IC50 [8]: 66 nM"
COc1cc2nccc(Oc3ccc(NC(=O)NC4CC4)c(Cl)c3)c2cc1C1CCN(C(=O)/C=C/CN(C)C)CC1,26.1,4.6,30,,
C=C(F)C(=O)N1CCC(c2cc3c(Oc4ccc(NC(=O)NC5CC5)c(Cl)c4)ccnc3cc2OC)CC1,> 10000,,> 10000,21.6,
C=CC(=O)N1CCC(c2cc3c(Oc4cc5cc(C)[nH]c5cc4F)ccnc3cc2OC)CC1,216,,313,20.6,
C=CC(=O)N1CCC(c2cc3c(Oc4ccc(NC(=O)NC5CC5)c(Cl)c4)ccnc3cc2OC(C)C)CC1,37.8,17,63.6,,
